In the supplement of paper PMC11451515:

Test system: NOMO1
Assay: cell viability relative to DMSO control; higher = less cytotoxic
Settings: 48 h
How it was run: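 Leukemia cells (NOMO1 or SEM, 500 cells/well; P12-Ichikawa, 1000 cells/well) were seeded in 5 μl in 1536-well plates after at least four passages of adaptation to each medium. They received library compounds in DMSO by pin dosing, 11 threefold points from 47 μM to 0.79 nM. Luminescence with CellTiter-Glo One was read after 48 h at 37°C. Viability is stated per plate relative to DMSO wells, with cell-free wells as background.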

[1] = HPLM + 10% dialyzed FBS, 0.000781 µM
[2] = HPLM + 10% dialyzed FBS, 0.00234 µM
[3] = HPLM + 10% dialyzed FBS, 0.00702 µM
[4] = HPLM + 10% dialyzed FBS, 0.0211 µM
[5] = HPLM + 10% dialyzed FBS, 0.0632 µM
[6] = HPLM + 10% dialyzed FBS, 0.19 µM
[7] = HPLM + 10% dialyzed FBS, 0.569 µM
[8] = HPLM + 10% dialyzed FBS, 1.71 µM
[9] = HPLM + 10% dialyzed FBS, 5.12 µM
[10] = HPLM + 10% dialyzed FBS, 15.4 µM
[11] = HPLM + 10% dialyzed FBS, 46.1 µM
[12] = RPMI 5 mM glucose + 10% FBS, 0.000781 µM
[13] = RPMI 5 mM glucose + 10% FBS, 0.00234 µM
[14] = RPMI 5 mM glucose + 10% FBS, 0.00702 µM
[15] = RPMI 5 mM glucose + 10% FBS, 0.0211 µM
[16] = RPMI 5 mM glucose + 10% FBS, 0.0632 µM
[17] = RPMI 5 mM glucose + 10% FBS, 0.19 µM
[18] = RPMI 5 mM glucose + 10% FBS, 0.569 µM
[19] = RPMI 5 mM glucose + 10% FBS, 1.71 µM
[20] = RPMI 5 mM glucose + 10% FBS, 5.12 µM
[21] = RPMI 5 mM glucose + 10% FBS, 15.4 µM
[22] = RPMI 5 mM glucose + 10% FBS, 46.1 µM
[23] = RPMI 5 mM glucose + 10% dialyzed FBS, 0.000781 µM
[24] = RPMI 5 mM glucose + 10% dialyzed FBS, 0.00234 µM
[25] = RPMI 5 mM glucose + 10% dialyzed FBS, 0.00702 µM
[26] = RPMI 5 mM glucose + 10% dialyzed FBS, 0.0211 µM
[27] = RPMI 5 mM glucose + 10% dialyzed FBS, 0.0632 µM
[28] = RPMI 5 mM glucose + 10% dialyzed FBS, 0.19 µM
[29] = RPMI 5 mM glucose + 10% dialyzed FBS, 0.569 µM
[30] = RPMI 5 mM glucose + 10% dialyzed FBS, 1.71 µM
[31] = RPMI 5 mM glucose + 10% dialyzed FBS, 5.12 µM
[32] = RPMI 5 mM glucose + 10% dialyzed FBS, 15.4 µM
[33] = RPMI 5 mM glucose + 10% dialyzed FBS, 46.1 µM

Compound | cell viability [1] | cell viability [2] | cell viability [3] | cell viability [4] | cell viability [5] | cell viability [6] | cell viability [7] | cell viability [8] | cell viability [9] | cell viability [10] | cell viability [11] | cell viability [12] | cell viability [13] | cell viability [14] | cell viability [15] | cell viability [16] | cell viability [17] | cell viability [18] | cell viability [19] | cell viability [20] | cell viability [21] | cell viability [22] | cell viability [23] | cell viability [24] | cell viability [25] | cell viability [26] | cell viability [27] | cell viability [28] | cell viability [29] | cell viability [30] | cell viability [31] | cell viability [32] | cell viability [33]
NC1CCC(N[C@@H]2C[C@H]2c2ccccc2)CC1 (stereo partly drawn) | 78.6% | 92.8% | 94.8% | 93.3% | 94.2% | 108% | 117% | 108% | 107% | 111% | 92% | 95.3% | 88.9% | 101% | 104% | 101% | 89.4% | 94.4% | 89.8% | 94.3% | 100% | 93.3% | 95.5% | 97% | 96% | 96.8% | 100% | 96.7% | 85.5% | 93.8% | 99.7% | 88% | 84%
CCC[C@@H]1C[C@@H](C(=O)N[C@@H]([C@H]2O[C@H](SC)[C@H](O)[C@@H](O)[C@H]2O)[C@@H](C)O)N(C)C1.Cl | 103% | 121% | 123% | 122% | 125% | 128% | 110% | 100% | 79% | 96% | 68.8% | 129% | 121% | 107% | 111% | 114% | 111% | 124% | 103% | 111% | 124% | 111% | 118% | 112% | 119% | 105% | 119% | 109% | 111% | 108% | 107% | 104% | 98%
O=C(NC1CCNCC1)c1n[nH]cc1NC(=O)c1c(Cl)cccc1Cl | 114% | 110% | 123% | 128% | 126% | 127% | 112% | 23.5% | 7.29% | 5.85% | 3.89% | 112% | 110% | 110% | 104% | 112% | 115% | 111% | 33.9% | 9.78% | 7.73% | 3.45% | 116% | 116% | 115% | 113% | 117% | 107% | 98.1% | 35.8% | 7.61% | 7.43% | 3.85%
CC/1=C/N([C@@H]2C[C@@H](O)[C@H](CO)O2)C(=O)NC1=O | 97.5% | 109% | 89% | 104% | 102% | 101% | 100% | 95.1% | 80.3% | 92.8% | 61.2% | 84.9% | 85.2% | 82% | 83.4% | 88.7% | 99.3% | 79.7% | 88.1% | 90.1% | 83.7% | 66.4% | 80% | 94% | 84.6% | 86.4% | 98.4% | 87.7% | 92.1% | 85% | 75.9% | 94.4% | 62.3%
CCNC(=O)C[C@@H]1\N=C(C2=CC=C(Cl)C=C2)/C3=C(C=CC(=C3)OC)[N]4C(=NN=C14)C | 121% | 130% | 123% | 121% | 114% | 120% | 107% | 84.8% | 68.5% | 29% | 15% | 108% | 118% | 103% | 114% | 121% | 105% | 104% | 90.2% | 76.1% | 26.7% | 6.87% | 106% | 116% | 117% | 109% | 114% | 112% | 98% | 89.7% | 72.4% | 28.4% | 9.69%
COc1cc2nccc(Oc3ccc(NC(=O)Nc4cc(C)on4)c(Cl)c3)c2cc1OC | 113% | 117% | 117% | 138% | 108% | 116% | 121% | 130% | 115% | 129% | 87.8% | – | – | – | – | – | – | – | – | – | – | – | 124% | 124% | 119% | 114% | 112% | 115% | 111% | 136% | 112% | 120% | 70.9%
N[C@@H](C(=O)N[C@H]1[C@H]2SC\C(=C(/N2C1=O)C(O)=O)Cl)C3=CC=CC=C3 | 123% | 124% | 125% | 136% | 150% | 119% | 126% | 108% | 134% | 145% | 135% | – | – | – | – | – | – | – | – | – | – | – | – | – | – | – | – | – | – | – | – | – | –
CCOC(=O)C/1=C(C)/NC(=S)NC1C2=CC=CC(=C2)O (stereo not drawn) | – | – | – | – | – | – | – | – | – | – | – | 103% | 124% | 117% | 128% | 123% | 47.3% | 22.7% | 24.3% | 19.3% | 22.3% | 17.1% | 117% | 120% | 133% | 126% | 132% | 99.5% | 33.2% | 32.1% | 22.9% | 26.4% | 23.3%
CN1CCCN(C(=O)c2cccc(-c3ccc(/C=C4/C(=O)Nc5ccc(Cl)cc54)o3)c2)CC1 | 134% | 118% | 120% | 124% | 112% | 102% | 109% | 103% | 91.8% | 96.7% | 66.1% | 124% | 107% | 108% | 110% | 98.3% | 109% | 94.4% | 96.1% | 99.4% | 85.8% | 47.4% | 111% | 112% | 109% | 107% | 111% | 109% | 104% | 96.2% | 85.6% | 94.5% | 60%
